Measurements: PubChem BioAssay AID248 (DTP/NCI, 2004)
Inconclusive results and toxic doses are left out. No stated cut-off is given here; in the data, active means T/C of 150% or more; inactive means T/C below 125%. Square brackets hold non-standard residues; d marks the D form. Peptide text beside a SMILES is read from it. * marks the point of attachment. ξ: configuration not given here. ξF = NC(Cc1ccccc1)C(=O)O; Cbz = O=C(OCc1ccccc1)*

System: L1210 leukemia ip in BDF1 mice, survival T/C
Test: NCI In Vivo Anticancer Drug Screen. Data for tumor model L1210 Leukemia (intraperitoneal) in B6D2F1 (BDF1) mice
Conditions: endpoint: mean survival time, higher = longer survival
Method in brief: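 Read-out is survival time, reported as the treated-group measurement over the vehicle-control measurement.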

[1] = dose: 100.0 mg/kg/injection, schedule: Q04DX002 (ip), vehicle: Klucel (hydroxypropylcellulose) (HPC)
[2] = dose: 200.0 mg/kg/injection, schedule: Q04DX002 (ip), vehicle: Klucel (hydroxypropylcellulose) (HPC)
[3] = dose: 400.0 mg/kg/injection, schedule: Q04DX002 (ip), vehicle: Klucel (hydroxypropylcellulose) (HPC)
[4] = dose: 100.0 mg/kg/injection, schedule: Q04DX003 (ip), vehicle: Klucel (hydroxypropylcellulose) (HPC)
[5] = dose: 200.0 mg/kg/injection, schedule: Q04DX003 (ip), vehicle: Klucel (hydroxypropylcellulose) (HPC)
[6] = dose: 400.0 mg/kg/injection, schedule: Q04DX003 (ip), vehicle: Klucel (hydroxypropylcellulose) (HPC)
[7] = dose: 100.0 mg/kg/injection, schedule: Q01DX009 (ip), vehicle: Klucel (hydroxypropylcellulose) (HPC)
[8] = dose: 200.0 mg/kg/injection, schedule: Q01DX009 (ip), vehicle: Klucel (hydroxypropylcellulose) (HPC)
[9] = dose: 400.0 mg/kg/injection, schedule: Q01DX009 (ip), vehicle: Klucel (hydroxypropylcellulose) (HPC)
[10] = dose: 12.5 mg/kg/injection, schedule: Q01DX009 (ip), vehicle: saline with Tween-80
[11] = dose: 25.0 mg/kg/injection, schedule: Q01DX009 (ip), vehicle: saline with Tween-80
[12] = dose: 100.0 mg/kg/injection, schedule: Q01DX009 (ip), vehicle: saline with Tween-80
[13] = dose: 100.0 mg/kg/injection, schedule: Q04DX003 (ip), vehicle: saline with Tween-80
[14] = dose: 200.0 mg/kg/injection, schedule: Q01DX009 (ip), vehicle: saline with Tween-80
[15] = dose: 200.0 mg/kg/injection, schedule: Q04DX003 (ip), vehicle: saline with Tween-80
[16] = dose: 400.0 mg/kg/injection, schedule: Q04DX003 (ip), vehicle: saline with Tween-80
[17] = dose: 25.0 mg/kg/injection, schedule: Q04DX003 (ip), vehicle: saline with Tween-80
[18] = dose: 50.0 mg/kg/injection, schedule: Q04DX003 (ip), vehicle: saline with Tween-80

Measured: T/C

CCCCCCCCCCCCCCCCP(=O)(OCCOCCCCCC)OCCOCCCCCC
inactive: dose: 12.5 mg/kg/injection, schedule: Q01DX009 (ip), vehicle: acetone 93 % of control | dose: 12.5 mg/kg/injection, schedule: Q04DX003 (ip), vehicle: acetone 95 % of control | dose: 25.0 mg/kg/injection, schedule: Q01DX009 (ip), vehicle: acetone 100 % of control | dose: 25.0 mg/kg/injection, schedule: Q04DX003 (ip), vehicle: acetone 109 % of control | dose: 50.0 mg/kg/injection, schedule: Q01DX009 (ip), vehicle: acetone 93 % of control | dose: 50.0 mg/kg/injection, schedule: Q04DX003 (ip), vehicle: acetone 106 % of control

BrC=C=C1CCCCC1
inactive: dose: 100.0 mg/kg/injection, schedule: Q01DX009 (ip), vehicle: saline 98 % of control | dose: 200.0 mg/kg/injection, schedule: Q01DX009 (ip), vehicle: saline 93 % of control | dose: 400.0 mg/kg/injection, schedule: Q01DX009 (ip), vehicle: saline 95 % of control

O=C(O)c1cccc(Br)c1
inactive: [1] 102 % of control | [2] 98 % of control | [3] 102 % of control

N#Cc1ccc(-n2cccc2)cc1
inactive: dose: 100.0 mg/kg/injection, schedule: Q01DX001 (ip), vehicle: steriod suspending solution 100 % of control | dose: 200.0 mg/kg/injection, schedule: Q01DX001 (ip), vehicle: steriod suspending solution 100 % of control | dose: 400.0 mg/kg/injection, schedule: Q01DX001 (ip), vehicle: steriod suspending solution 101 % of control

COc1ccc(C=Nc2cccc3ccccc23)cc1
inactive: [4] 98 % of control | [5] 96 % of control | [6] 103 % of control

CC(C)(C)OC(=O)COc1cccc([N+](=O)[O-])c1
inactive: [7] 114 % of control | [8] 102 % of control | [9] 100 % of control

COc1cc2c(c(Cl)c1N)-c1ccccc1C2
inactive: dose: 177.0 mg/kg/injection, schedule: Q01DX001 (ip), vehicle: carboxymethylcellulose (CMC) 104 % of control | dose: 266.0 mg/kg/injection, schedule: Q01DX001 (ip), vehicle: carboxymethylcellulose (CMC) 98 % of control

Cn1cnc2c(C#N)c(C#N)nn2c1=O
inactive: dose: 50.0 mg/kg/injection, schedule: Q01DX001 (ip), vehicle: carboxymethylcellulose (CMC) 93 % of control | dose: 100.0 mg/kg/injection, schedule: Q01DX001 (ip), vehicle: carboxymethylcellulose (CMC) 90 % of control | dose: 200.0 mg/kg/injection, schedule: Q01DX001 (ip), vehicle: carboxymethylcellulose (CMC) 93 % of control

CC(=O)NC1Cc2cc(C)cc(C)c21 (stereo not given)
inactive: dose: 50.0 mg/kg/injection, schedule: Q04DX002 (ip), vehicle: Klucel (hydroxypropylcellulose) (HPC) 105 % of control | [1] 102 % of control | [2] 98 % of control

O=C(C[n+]1cccc2ccccc21)c1ccc(-c2ccc(C(=O)C[n+]3cccc4ccccc43)cc2)cc1
inactive: dose: 0.13 mg/kg/injection, schedule: Q04DX003 (ip), vehicle: saline 103 % of control | dose: 0.25 mg/kg/injection, schedule: Q04DX003 (ip), vehicle: saline 103 % of control | dose: 0.5 mg/kg/injection, schedule: Q04DX003 (ip), vehicle: saline 102 % of control

CSc1ccc(NCN2C(=O)c3ccccc3C2=O)cc1
inactive: [7] 102 % of control | [8] 100 % of control

CCOC(=O)CCN(C(=S)Nc1ccccc1)C1CCCCC1
inactive: dose: 100.0 mg/kg/injection, schedule: Q01DX Z (ip), vehicle: methylcellulose (MC) 94 % of control | dose: 200.0 mg/kg/injection, schedule: Q01DX Z (ip), vehicle: methylcellulose (MC) 92 % of control

O=C(NC(=S)Nc1ccc([N+](=O)[O-])cc1Cl)c1ccccc1F
inactive: [1] 91 % of control | [2] 105 % of control | [3] 105 % of control

CCCCSC(=O)C(C)O (stereo not given)
inactive: dose: 100.0 mg/kg/injection, schedule: Q04DX002 (ip), vehicle: saline with Tween-80 99 % of control | dose: 200.0 mg/kg/injection, schedule: Q04DX002 (ip), vehicle: saline with Tween-80 89 % of control | dose: 400.0 mg/kg/injection, schedule: Q04DX002 (ip), vehicle: saline with Tween-80 86 % of control

c1cc2c(cc1NC1=NCCO1)CCC2
inactive: dose: 6.25 mg/kg/injection, schedule: Q01DX009 (ip), vehicle: saline with Tween-80 107 % of control | [10] 95 % of control | [11] 114 % of control

O=c1[nH]c(Cl)nc2c(Cl)c(C(Cl)(Cl)Cl)nn12
inactive: [12] 95 % of control | [13] 101 % of control | [14] 93 % of control | [15] 94 % of control | [16] 92 % of control

O=C(CNC(=O)OCc1ccccc1)NC(Cc1ccccc1)C(=O)O (stereo not drawn) (Cbz-Gly-[ξF]-OH)
inactive: dose: 50.0 mg/kg/injection, schedule: Q01DX009 (ip), vehicle: Klucel (hydroxypropylcellulose) (HPC) 95 % of control | dose: 50.0 mg/kg/injection, schedule: Q04DX003 (ip), vehicle: Klucel (hydroxypropylcellulose) (HPC) 93 % of control | [7] 97 % of control | [4] 98 % of control | [8] 93 % of control | [5] 100 % of control

COc1ccc(CCC2=NCCN2)cc1OC
inactive: [13] 103 % of control | [15] 97 % of control

CCCCCCCCCC(=O)N1CCC(CCCc2ccccc2)CC1
inactive: dose: 75.0 mg/kg/injection, schedule: Q01DX001 (ip), vehicle: carboxymethylcellulose (CMC) 95 % of control | dose: 150.0 mg/kg/injection, schedule: Q01DX001 (ip), vehicle: carboxymethylcellulose (CMC) 92 % of control | dose: 300.0 mg/kg/injection, schedule: Q01DX001 (ip), vehicle: carboxymethylcellulose (CMC) 95 % of control

N#C/C(=C\c1ccc(-c2ccccc2)cc1)c1ccc([N+](=O)[O-])cc1
inactive: [10] 90 % of control | dose: 12.5 mg/kg/injection, schedule: Q04DX003 (ip), vehicle: saline with Tween-80 95 % of control | [11] 88 % of control | [17] 93 % of control | [18] 88 % of control

COc1cc(/C=N/N=C(\C)c2ccc3ccccc3c2)cc(OC)c1OC
inactive: [7] 90 % of control | [8] 94 % of control | [9] 100 % of control

CCOC(=O)/C=C(/Nc1ccc(C(=O)c2ccccc2)cc1)C(=O)OCC
inactive: dose: 100.0 mg/kg/injection, schedule: Q01DX001 (ip), vehicle: acetone 87 % of control | dose: 100.0 mg/kg/injection, schedule: Q04DX003 (ip), vehicle: acetone 95 % of control | dose: 200.0 mg/kg/injection, schedule: Q01DX001 (ip), vehicle: acetone 92 % of control | dose: 200.0 mg/kg/injection, schedule: Q04DX003 (ip), vehicle: acetone 93 % of control | dose: 400.0 mg/kg/injection, schedule: Q01DX001 (ip), vehicle: acetone 90 % of control | dose: 400.0 mg/kg/injection, schedule: Q04DX003 (ip), vehicle: acetone 98 % of control

CC(=O)OCCN1c2ccccc2Sc2cnccc21
inactive: [12] 104 % of control | [13] 104 % of control | [14] 97 % of control | [15] 110 % of control | dose: 400.0 mg/kg/injection, schedule: Q01DX009 (ip), vehicle: saline with Tween-80 104 % of control | [16] 104 % of control

O=C1/C(=C\c2ccc(OCc3ccccc3)c(OCc3ccccc3)c2)N2CCC1CC2
inactive: [1] 102 % of control | [2] 115 % of control | [3] 105 % of control

CN(C)c1ncnc(N)n1
inactive: [7] 91 % of control | [4] 95 % of control | [8] 88 % of control | [5] 98 % of control | [9] 90 % of control | [6] 97 % of control

Cc1cn(C2CC(OS(C)(=O)=O)C(COC(c3ccccc3)(c3ccccc3)c3ccccc3)O2)c(=O)[nH]c1=O (stereo not given)
inactive: dose: 100.0 mg/kg/injection, schedule: Q01DX005 (ip), vehicle: saline 104 % of control | dose: 200.0 mg/kg/injection, schedule: Q01DX005 (ip), vehicle: saline 96 % of control

O=C1OC(c2ccccc2)(C2(c3ccccc3)OC(=O)c3ccccc32)c2ccccc21 (stereo not given)
inactive: [17] 97 % of control | [18] 97 % of control | [13] 90 % of control
